In patent US9695155B2, “Herbicidal substituted pyrimidinyloxy benzene compounds” (E. I. DU PONT DE NEMOURS AND COMPANY, priority 2013, dated 2017):

Tests used:
ducksalad = assay: Test C flooded paddy test; type: in vivo, Heteranthera limosa; conditions: Flood, scale 0 to 100 (0 no effect, 100 complete control), 13 to 15 days
Summary of the method: (§1)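 Pots were flooded to 3 cm above the soil surface at treatment, compound applied directly to the paddy water, and that depth held throughout. Plants were kept in a greenhouse for 13 to 15 days, then visually rated against untreated controls.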

barnyardgrass = assay: Test C flooded paddy test; type: in vivo, Echinochloa crus-galli; conditions: Flood, scale 0 to 100 (0 no effect, 100 complete control), 13 to 15 days
Summary of the method: as §1

kochia = assay: Test A postemergence; type: in vivo, Kochia scoparia
Summary of the method: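 Scoring: eye-based comparison with untreated controls, 0 for no effect through 100 for complete control, at about day 10. Treatments: directed soil spray preemergence; foliar spray postemergence on 2–10 cm plants at the one- to two-leaf stage. Medium: loam soil with sand.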

[1] = 125 g ai/ha, 0 to 100 scale where 0 is no effect and 100 is complete control
[2] = 500 g ai/ha, 0 to 100 scale where 0 is no effect and 100 is complete control
[3] = 31 g ai/ha, 0 to 100 scale, 0 no effect, 100 complete control
[4] = 1000 g ai/ha, 0 to 100 scale, 0 no effect, 100 complete control
[5] = 125 g ai/ha, 0 to 100 scale, 0 no effect, 100 complete control

SMILES	Plant response rating, Ducksalad (ducksalad; 31 g ai/ha)	Plant response rating, Ducksalad (ducksalad; 62 g ai/ha)	Plant response rating, Ducksalad (ducksalad; 125 g ai/ha)	Plant response rating, Ducksalad (ducksalad; 250 g ai/ha)	Plant response rating, Barnyardgrass (barnyardgrass; 31 g ai/ha)	Plant response rating, Barnyardgrass (barnyardgrass; 62 g ai/ha)	Plant response rating, Barnyardgrass (barnyardgrass; 125 g ai/ha)	Plant response rating, Barnyardgrass (barnyardgrass; 250 g ai/ha)	Plant response rating, Kochia (kochia; [2])	further results
Clc1cnc(Oc2ccccc2-n2cc(Cl)cn2)nc1 [Compound 3]	0	50	70	85	0	0	0	0		
N#Cc1cccc(Oc2ncc(F)cn2)c1-n1cc(Br)cn1 [Compound 62]	30	70	85	100	0	0	0	40		
Clc1cnc(Oc2cccc(Br)c2-n2cc(Br)cn2)nc1 [Compound 65]	0	30	85	85	0	0	0	0		
FCc1cccc(Oc2ncc(Cl)cn2)c1-n1cc(Br)cn1 [Compound 83]									100	Plant response rating, Kochia (kochia; [1]): 100
CCOc1cn(-c2c(Br)cccc2Oc2ncc(Cl)cn2)nn1 [Compound 84]									100	Plant response rating, Kochia (kochia; [1]): 100
FCc1cccc(Oc2ncc(F)cn2)c1-n1cc(C(F)(F)F)cn1 [Compound 118]										Plant response rating, Kochia (kochia; [3]): 60; Plant response rating, Kochia (kochia; [1]): 100
FCc1cccc(Oc2ncc(Br)cn2)c1-n1cc(C(F)(F)F)cn1 [Compound 120]	0	40	80	90	0	0	60	85		Plant response rating, Kochia (kochia; [3]): 60; Plant response rating, Kochia (kochia; [1]): 90
Clc1cnc(Oc2cccc(Br)c2-n2cc(Br)nn2)nc1 [Compound 129]									100	Kochia plant response rating (kochia; [1]): 100
FC(F)(F)Sc1cnn(-c2ccccc2Oc2ncc(Cl)cn2)c1 [Compound 132, 5-chloro-2-[2-[4-(trifluoromethylthio)-1H-pyrazol-1-yl]phenoxy]pyrimidine]									100	Kochia plant response rating (kochia; [1]): 90
Cc1cnc(Oc2cccc(C#N)c2-n2cc(I)cn2)nc1 [Compound 136]									100	Kochia plant response rating (kochia; [1]): 70
COc1cnn(-c2c(C#N)cccc2Oc2ncc(Cl)cn2)c1 [Compound 137]									100	Kochia plant response rating (kochia; [1]): 80
CCCOc1cnn(-c2c(C#N)cccc2Oc2ncc(Cl)cn2)c1 [Compound 150]	0	40	70	75	0	0	0	0	100	Kochia plant response rating (kochia; [1]): 70
FCc1cn(-c2c(F)cccc2Oc2ncc(Cl)cn2)nn1 [Compound 154]										Plant response rating, Kochia (kochia; [4]): 100
Fc1cccc(Oc2ncc(Cl)cn2)c1-n1cc(C2CC2)nn1 [Compound 155]										Plant response rating, Kochia (kochia; [4]): 100
N#Cc1cnn(-c2c(Oc3ncc(Cl)cn3)cccc2C(F)F)c1 [Compound 236]	0	40	80	90	0	0	0	20		
N#Cc1cccc(Oc2ncc(Cl)cn2)c1-n1cnc(C(F)(F)F)c1 [Compound 252, 3-[(5-chloro-2-pyrimidinyl)oxy]-2-[4-(trifluoromethyl)-1H-imidazol-1-yl]benzonitrile]									100	Plant response rating, Kochia (kochia; [3]): 70; Plant response rating, Kochia (kochia; [5]): 100
Fc1cccc(Oc2ncc(Cl)cn2)c1-n1cc(OCC(F)(F)F)cn1 [Compound 270]	20	60	80	95	0	30	45	60		Plant response rating, Kochia (kochia; [3]): 60; Plant response rating, Kochia (kochia; [5]): 70
N#Cc1cccc(Oc2ncc(Cl)cn2)c1-n1cc(-n2ccc(C(F)(F)F)n2)cn1 [Compound 284]									100	Plant response rating, Kochia (kochia; [5]): 60
